The source of these data is US20230150974A1 (Foghorn Therapeutics Inc., priority 2020, published 2023).

Where only a bound is given, the exact number is not on record here.

For one assay, the target named is T1, HiBiT-BRM (Homo sapiens, UniProt P51531).
T1 construct: expressed in transfected cells
The assay can be described thus: HiBiT-BRM cell-based degradation assay (Nano-Glo HiBiT Lytic Detection). Particulars: HeLa cells expressing HiBiT-BRM, 24 h; for DC50: read-out: BRM HiBit Degradation IC50. In outline: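 HeLa cells stably expressing HiBiT-tagged BRM were treated for 24 h, then lysed with LgBiT-containing Nano-Glo reagent and luminescence read. % degradation scaled between DMSO (high control) and 2 μM reference BRM/BRG1 degrader (low control).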
(The HiBiT peptide binds its large partner to form an active luciferase.)

Another assay deals with T2, HiBit-BRG1 (Homo sapiens, UniProt P51532).
T2 construct: expressed in transfected cells
T2 sequence (P51532 whole entry): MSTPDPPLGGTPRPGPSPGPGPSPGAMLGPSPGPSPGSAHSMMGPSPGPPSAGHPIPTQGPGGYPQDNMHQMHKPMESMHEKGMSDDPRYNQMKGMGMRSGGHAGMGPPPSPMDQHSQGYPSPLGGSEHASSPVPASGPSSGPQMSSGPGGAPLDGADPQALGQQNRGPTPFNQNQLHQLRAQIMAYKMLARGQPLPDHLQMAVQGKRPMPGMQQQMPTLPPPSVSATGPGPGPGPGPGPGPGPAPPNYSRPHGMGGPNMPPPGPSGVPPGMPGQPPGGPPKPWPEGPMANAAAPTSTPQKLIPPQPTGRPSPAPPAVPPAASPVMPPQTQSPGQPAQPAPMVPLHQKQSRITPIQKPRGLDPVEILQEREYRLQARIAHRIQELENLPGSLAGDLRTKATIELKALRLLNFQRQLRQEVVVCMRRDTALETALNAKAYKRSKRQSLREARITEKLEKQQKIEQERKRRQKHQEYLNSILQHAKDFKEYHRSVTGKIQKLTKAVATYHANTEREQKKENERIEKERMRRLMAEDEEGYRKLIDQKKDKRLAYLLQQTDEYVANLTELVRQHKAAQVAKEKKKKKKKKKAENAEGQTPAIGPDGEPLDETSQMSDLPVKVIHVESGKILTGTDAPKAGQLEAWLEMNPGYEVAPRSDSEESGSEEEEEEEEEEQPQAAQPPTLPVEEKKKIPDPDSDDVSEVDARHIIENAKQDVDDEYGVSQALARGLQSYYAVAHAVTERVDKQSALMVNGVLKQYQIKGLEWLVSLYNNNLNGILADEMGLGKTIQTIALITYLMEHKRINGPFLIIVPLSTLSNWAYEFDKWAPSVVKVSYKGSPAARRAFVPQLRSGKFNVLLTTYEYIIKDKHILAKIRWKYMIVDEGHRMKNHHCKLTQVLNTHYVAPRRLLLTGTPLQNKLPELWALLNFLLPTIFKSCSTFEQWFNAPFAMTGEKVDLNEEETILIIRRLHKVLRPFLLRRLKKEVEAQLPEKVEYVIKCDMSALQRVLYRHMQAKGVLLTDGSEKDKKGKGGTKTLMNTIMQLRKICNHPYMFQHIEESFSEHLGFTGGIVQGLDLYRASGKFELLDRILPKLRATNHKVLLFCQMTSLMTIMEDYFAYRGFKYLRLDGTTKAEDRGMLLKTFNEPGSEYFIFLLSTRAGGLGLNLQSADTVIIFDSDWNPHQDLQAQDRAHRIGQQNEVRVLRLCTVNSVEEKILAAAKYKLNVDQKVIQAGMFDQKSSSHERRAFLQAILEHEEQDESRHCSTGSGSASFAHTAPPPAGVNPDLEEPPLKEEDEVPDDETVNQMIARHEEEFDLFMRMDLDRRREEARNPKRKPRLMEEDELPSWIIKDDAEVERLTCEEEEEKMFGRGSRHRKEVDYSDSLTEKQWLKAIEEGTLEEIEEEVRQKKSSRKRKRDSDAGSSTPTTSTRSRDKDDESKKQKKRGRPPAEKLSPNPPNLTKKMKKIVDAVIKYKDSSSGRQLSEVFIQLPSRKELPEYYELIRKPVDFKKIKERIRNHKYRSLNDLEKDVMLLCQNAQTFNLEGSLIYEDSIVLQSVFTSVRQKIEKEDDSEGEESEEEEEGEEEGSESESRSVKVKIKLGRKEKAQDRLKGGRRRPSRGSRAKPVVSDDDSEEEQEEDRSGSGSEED
The assay can be described thus: HiBit-BRG1 cell-based degradation assay (Nano-Glo HiBiT Lytic Detection). Particulars: HeLa cells expressing HiBit-BRG1 and LgBit, 24 h; for DC50: read-out: BRG1 HiBit Degradation IC50; for Dmax: read-out: BRG1 HiBit Degradation Maximum (%). The method, boiled down: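 Stable HeLa line co-expressing HiBit-BRG1 and LgBit, 5000 cells/well, treated 24 h in a tissue culture incubator. Lysed with Nano-Glo HiBiT lytic reagent, luminescence read. % degradation normalized to DMSO (high control) and 2 μM reference BRM/BRG1 degrader (low control).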

T1 sequence (P51531 whole entry): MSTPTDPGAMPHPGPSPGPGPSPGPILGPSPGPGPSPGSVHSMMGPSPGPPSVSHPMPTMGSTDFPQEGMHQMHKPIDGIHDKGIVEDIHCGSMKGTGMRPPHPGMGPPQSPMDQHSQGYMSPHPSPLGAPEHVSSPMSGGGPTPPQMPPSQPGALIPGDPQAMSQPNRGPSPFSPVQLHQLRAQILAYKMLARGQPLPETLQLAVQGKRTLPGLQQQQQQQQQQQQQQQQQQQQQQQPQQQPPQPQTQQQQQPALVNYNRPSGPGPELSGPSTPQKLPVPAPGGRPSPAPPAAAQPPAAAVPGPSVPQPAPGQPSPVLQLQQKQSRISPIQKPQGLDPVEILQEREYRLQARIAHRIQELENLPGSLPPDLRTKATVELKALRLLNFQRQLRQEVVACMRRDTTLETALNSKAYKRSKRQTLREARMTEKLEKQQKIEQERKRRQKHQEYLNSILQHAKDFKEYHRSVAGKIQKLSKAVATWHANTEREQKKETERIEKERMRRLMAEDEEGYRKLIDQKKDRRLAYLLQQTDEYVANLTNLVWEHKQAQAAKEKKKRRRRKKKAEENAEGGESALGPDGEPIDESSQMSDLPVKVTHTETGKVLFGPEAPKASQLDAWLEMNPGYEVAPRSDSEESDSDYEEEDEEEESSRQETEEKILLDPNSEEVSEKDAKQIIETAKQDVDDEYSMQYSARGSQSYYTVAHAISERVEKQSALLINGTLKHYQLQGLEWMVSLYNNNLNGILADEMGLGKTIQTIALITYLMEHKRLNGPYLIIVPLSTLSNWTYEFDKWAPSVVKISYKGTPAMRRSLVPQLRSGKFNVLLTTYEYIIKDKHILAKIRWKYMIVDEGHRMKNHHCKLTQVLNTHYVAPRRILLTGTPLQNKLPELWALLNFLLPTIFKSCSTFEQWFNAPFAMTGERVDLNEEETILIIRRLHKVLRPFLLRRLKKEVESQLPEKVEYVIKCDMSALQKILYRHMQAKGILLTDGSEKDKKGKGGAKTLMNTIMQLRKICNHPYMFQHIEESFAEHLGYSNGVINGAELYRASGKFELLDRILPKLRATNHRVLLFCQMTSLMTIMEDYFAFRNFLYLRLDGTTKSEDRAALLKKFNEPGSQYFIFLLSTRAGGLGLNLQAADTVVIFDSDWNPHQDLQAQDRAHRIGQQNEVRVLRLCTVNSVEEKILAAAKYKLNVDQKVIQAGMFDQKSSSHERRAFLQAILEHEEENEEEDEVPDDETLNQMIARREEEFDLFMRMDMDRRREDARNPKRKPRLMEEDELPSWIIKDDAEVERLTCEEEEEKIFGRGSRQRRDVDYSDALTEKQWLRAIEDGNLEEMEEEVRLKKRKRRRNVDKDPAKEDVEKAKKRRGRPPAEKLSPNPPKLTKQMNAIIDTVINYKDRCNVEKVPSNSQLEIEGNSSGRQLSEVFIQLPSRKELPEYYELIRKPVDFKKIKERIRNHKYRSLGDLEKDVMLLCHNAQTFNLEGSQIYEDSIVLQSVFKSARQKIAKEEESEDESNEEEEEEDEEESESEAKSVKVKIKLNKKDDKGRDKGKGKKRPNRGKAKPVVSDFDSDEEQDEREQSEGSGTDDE

On to `Cc1ncsc1-c1ccc(CNC(=O)[C@@H]2C[C@@H](O)CN2C(=O)[C@@H](NC(=O)CCN2CC3(CN(CCC(=O)NCc4ccc(CCOc5cc(-c6ccccc6O)nnc5N)cc4)C3)C2)C(C)(C)C)cc1` [Compound 188, (2S,4R)-1-[(2S)-2-(3-[6-[2-([[4-(2-[[3-amino-6-(2-hydroxyphenyl)pyridazin-4-yl]oxy]ethyl)phenyl]methyl]carbamoyl)ethyl]-2,6-diazaspiro[3.3]heptan-2-yl]propanamido)-3,3-dimethylbutanoyl]-4-hydroxy-N-[[4-(4-methyl-1,3-thiazol-5-yl)phenyl]methyl]pyrrolidine-2-carboxamide], for which, at HiBiT-BRM, the “BRM HiBit Degradation Maximum (%)” value is on record as “C (“C” indicates maximum degradation <50%)” and the DC50 was above 1 µM. Besides, on HiBit-BRG1, the DC50 was above 1 µM and the Dmax is below 50%.

Consider `CN(CCNC(=O)CN1CCN(c2cc(-c3ccccc3O)nnc2N)CC1)CCNc1cccc2c1C(=O)N(C1CCC(=O)NC1=O)C2=O` (stereo not drawn) [Compound 96, 2-(4-(3-amino-6-(2-hydroxyphenyl)pyridazin-4-yl)piperazin-1-yl)-N-(2-((2-((2-(2,6-dioxopiperidin-3-yl)-1,3-dioxoisoindolin-4-yl)amino)ethyl)(methyl)amino)ethyl)acetamide], for which, at HiBiT-BRM, the “BRM HiBit Degradation Maximum (%)” value is “C (“C” indicates maximum degradation <50%)” and the DC50 is above 1 µM. Further, on HiBit-BRG1, the DC50 is above 1 µM and the Dmax is below 50%.

For the compound `Cc1ncsc1-c1ccc(CNC(=O)[C@@H]2C[C@@H](O)CN2C(=O)[C@@H](NC(=O)CCCCCCCCCCCCCCCC(=O)NCc2ccc(CCOc3cc(-c4ccccc4O)nnc3N)cc2)C(C)C)cc1` [Compound 173, N1-(4-(2-((3-amino-6-(2-hydroxyphenyl)pyridazin-4-yl)oxy)ethyl)benzyl)-N17-((S)-1-((2S,4R)-4-hydroxy-2-((4-(4-methylthiazol-5-yl)benzyl)carbamoyl)pyrrolidin-1-yl)-3-methyl-1-oxobutan-2-yl)heptadecanediamide], on HiBiT-BRM, the “BRM HiBit Degradation Maximum (%)” value is on record as “B (“B” indicates maximum degradation ≥50%)” and the DC50 was above 0.1 µM. In addition, at HiBit-BRG1, the DC50 is above 1 µM and the Dmax is below 50%.

Regarding `Nc1nnc(-c2ccccc2O)cc1OCCc1ccc(CNC(=O)CCCCCCCCCNc2ccc3c(c2)C(=O)N(C2CCC(=O)NC2=O)C3=O)cc1` (stereo not drawn) [Compound 75, N-(4-(2-((3-amino-6-(2-hydroxyphenyl)pyridazin-4-yl)oxy)ethyl)benzyl)-10-((2-(2,6-dioxopiperidin-3-yl)-1,3-dioxoisoindolin-5-yl)amino)decanamide], at HiBiT-BRM, the “BRM HiBit Degradation Maximum (%)” value is listed as “C (“C” indicates maximum degradation <50%)” and the DC50 is above 1 µM. Also, at HiBit-BRG1, the DC50 was above 1 µM.

As to `Nc1nnc(-c2ccccc2O)cc1OCCc1ccc(C(=O)NCCCC(=O)NCc2ccc(S(=O)(=O)Nc3cccc4c(Cl)c[nH]c34)cc2)cc1` [Compound 16, 4-[[4-(2-[[3-amino-6-(2-hydroxyphenyl)pyridazin-4-yl]oxy]ethyl)phenyl]formamido]-N-([4-[(3-chloro-1H-indol-7-yl)sulfamoyl]phenyl]methyl)butanamide], at HiBiT-BRM, the “BRM HiBit Degradation Maximum (%)” value was “C (“C” indicates maximum degradation <50%)” and the DC50 was above 1 µM. Also, on HiBit-BRG1, the DC50 is above 1 µM and the Dmax was below 50%.

As for `Nc1nnc(-c2ccccc2O)cc1NCCc1ccc(CNC(=O)CCCCOc2cccc3c2C(=O)N(C2CCC(=O)NC2=O)C3=O)cc1` (stereo not drawn) [Compound 147, N-(4-(2-((3-amino-6-(2-hydroxyphenyl)pyridazin-4-yl)amino)ethyl)benzyl)-5-((2-(2,6-dioxopiperidin-3-yl)-1,3-dioxoisoindolin-4-yl)oxy)pentanamide], on HiBiT-BRM, the “BRM HiBit Degradation Maximum (%)” value is listed as “C (“C” indicates maximum degradation <50%)” and the DC50 was above 1 µM. At HiBit-BRG1, the DC50 was above 1 µM and the Dmax was below 50%.

On to `Cc1ncsc1-c1ccc(CNC(=O)[C@@H]2C[C@@H](O)CN2C(=O)[C@@H](NC(=O)CCN2CCN(CCC(=O)NCc3ccc(CCOc4cc(-c5ccccc5O)nnc4N)cc3)CC2)C(C)(C)C)cc1` [Compound 189, (2S,4R)-1-[(2S)-2-(3-[4-[2-([[4-(2-[[3-amino-6-(2-hydroxyphenyl)pyridazin-4-yl]oxy]ethyl)phenyl]methyl]carbamoyl)ethyl]piperazin-1-yl]propanamido)-3,3-dimethylbutanoyl]-4-hydroxy-N-[[4-(4-methyl-1,3-thiazol-5-yl)phenyl]methyl]pyrrolidine-2-carboxamide], for which, on HiBiT-BRM, the “BRM HiBit Degradation Maximum (%)” value is given as “C (“C” indicates maximum degradation <50%)” and the DC50 was above 1 µM. At HiBit-BRG1, the DC50 is above 1 µM and the Dmax was below 50%.

Consider `Nc1nnc(-c2ccccc2O)cc1OCCc1ccc(CNC(=O)CCCCNc2cccc3c2C(=O)N(C2CCC(=O)NC2=O)C3=O)cc1` (stereo not drawn) [Compound 4, N-[[4-(2-[[3-amino-6-(2-hydroxyphenyl)pyridazin-4-yl]oxy]ethyl)phenyl]methyl]-5-[[2-(2,6-dioxopiperidin-3-yl)-1,3-dioxoisoindol-4-yl]amino]pentanamide], for which, on HiBiT-BRM, the “BRM HiBit Degradation Maximum (%)” value was “B (“B” indicates maximum degradation ≥50%)” and the DC50 was above 0.1 µM. Further, the DC50 on HiBit-BRG1 is above 1 µM.

For the compound `Nc1nnc(-c2ccccc2O)cc1OCCc1ccc(CNCCN2CCN(c3ccc4c(c3)C(=O)N(C3CCC(=O)NC3=O)C4=O)CC2)cc1` (stereo not drawn) [Compound 3, 5-(4-(2-((4-(2-((3-amino-6-(2-hydroxyphenyl)pyridazin-4-yl)oxy)ethyl)benzyl)amino)ethyl)piperazin-1-yl)-2-(2,6-dioxopiperidin-3-yl)isoindoline-1,3-dione], on HiBiT-BRM, the “BRM HiBit Degradation Maximum (%)” value is reported as “C (“C” indicates maximum degradation <50%)” and the DC50 was above 1 µM. Moreover, at HiBit-BRG1, the DC50 is above 1 µM and the Dmax is below 50%.

Take `Nc1nnc(-c2ccccc2O)cc1N1CCN(CCNC(=O)CCOCCOCCNc2cccc3c2C(=O)N(C2CCC(=O)NC2=O)C3=O)CC1` (stereo not drawn) [Compound 93]: on HiBiT-BRM, the “BRM HiBit Degradation Maximum (%)” value is “C (“C” indicates maximum degradation <50%)” and the DC50 was above 1 µM. Moreover, at HiBit-BRG1, the DC50 is above 1 µM and the Dmax is below 50%.

Regarding `CN(CCNC(=O)COc1cccc2c1C(=O)N(C1CCC(=O)NC1=O)C2=O)CCNC(=O)c1ccc(CCOc2cc(-c3ccccc3O)nnc2N)cc1` (stereo not drawn) [Compound 58, N-[2-[(2-[[4-(2-[[3-amino-6-(2-hydroxyphenyl)pyridazin-4-yl]oxy]ethyl)phenyl]formamido]ethyl)(methyl)amino]ethyl]-2-[[2-(2,6-dioxopiperidin-3-yl)-1,3-dioxoisoindol-4-yl]oxy]acetamide], on HiBiT-BRM, the “BRM HiBit Degradation Maximum (%)” value is reported as “C (“C” indicates maximum degradation <50%)” and the DC50 is above 1 µM. In addition, at HiBit-BRG1, the DC50 was above 1 µM and the Dmax was below 50%.
